Values of other authors as cited in US20180015057A1, “ERR ALPHA AND ERR GAMMA ARE ESSENTIAL COORDINATORS OF CARDIAC METABOLISM AND FUNCTION” (Salk Institute for Biological Studies, priority 2015, published 2018).

Tests used:
ERRγ = target: T1, ERRγ (Homo sapiens, UniProt P62508); conditions: for activation of ERRγ: for example in the presence of PGC-1a
T1 sequence (P62508 1-458): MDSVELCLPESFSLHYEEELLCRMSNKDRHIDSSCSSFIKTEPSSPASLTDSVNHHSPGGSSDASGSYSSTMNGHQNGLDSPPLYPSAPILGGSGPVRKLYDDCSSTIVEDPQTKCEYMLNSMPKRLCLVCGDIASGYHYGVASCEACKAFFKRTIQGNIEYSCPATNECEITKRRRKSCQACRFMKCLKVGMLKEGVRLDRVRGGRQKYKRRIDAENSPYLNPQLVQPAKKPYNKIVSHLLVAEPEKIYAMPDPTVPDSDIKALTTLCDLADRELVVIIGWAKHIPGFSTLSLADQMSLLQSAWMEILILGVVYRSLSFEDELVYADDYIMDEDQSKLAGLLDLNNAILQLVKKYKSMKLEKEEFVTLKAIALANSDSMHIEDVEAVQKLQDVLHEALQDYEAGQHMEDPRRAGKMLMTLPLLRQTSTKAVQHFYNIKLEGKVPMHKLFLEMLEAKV

ERRβ = target: T2, ERRβ (Homo sapiens, UniProt O95718); conditions: for activation of ERRβ: for example in the presence of PGC-1a
T2 sequence (O95718 1-433): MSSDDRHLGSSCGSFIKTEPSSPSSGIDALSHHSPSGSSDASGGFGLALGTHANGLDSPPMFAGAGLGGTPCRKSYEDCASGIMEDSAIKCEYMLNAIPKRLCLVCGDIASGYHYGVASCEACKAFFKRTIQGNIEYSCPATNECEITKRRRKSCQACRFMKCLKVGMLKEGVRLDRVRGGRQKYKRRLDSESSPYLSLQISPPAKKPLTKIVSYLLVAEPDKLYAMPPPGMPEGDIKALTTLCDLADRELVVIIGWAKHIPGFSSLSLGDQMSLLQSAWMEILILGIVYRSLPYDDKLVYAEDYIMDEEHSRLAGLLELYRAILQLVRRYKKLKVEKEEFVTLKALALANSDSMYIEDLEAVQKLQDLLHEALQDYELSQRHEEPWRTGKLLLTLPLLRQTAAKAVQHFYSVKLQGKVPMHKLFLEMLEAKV

ERRα = target: T3, ERRα (Homo sapiens, UniProt P11474); conditions: for example in the presence of PGC-1a
T3 sequence (P11474 1-423): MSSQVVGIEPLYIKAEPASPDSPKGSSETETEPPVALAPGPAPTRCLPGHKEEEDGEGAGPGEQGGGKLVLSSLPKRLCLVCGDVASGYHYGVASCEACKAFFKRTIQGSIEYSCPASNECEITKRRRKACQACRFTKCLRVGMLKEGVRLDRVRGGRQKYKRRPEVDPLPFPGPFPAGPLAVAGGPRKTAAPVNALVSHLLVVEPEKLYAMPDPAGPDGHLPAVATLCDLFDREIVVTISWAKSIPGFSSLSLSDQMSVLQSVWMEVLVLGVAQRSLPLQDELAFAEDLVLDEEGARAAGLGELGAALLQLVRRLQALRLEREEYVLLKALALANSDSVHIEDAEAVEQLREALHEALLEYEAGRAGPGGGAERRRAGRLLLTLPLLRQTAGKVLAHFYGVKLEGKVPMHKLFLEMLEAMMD

activation of ERRγ (ERRγ)	activation of ERRα (ERRα)	activation of ERRβ (ERRβ)	selectivity for ERRγ versus ERRα and β (ERRγ; screening assay for agonists derived from GSK4716 (Kim et al. 2009))	Compound	agonism of ERRγ (ERRγ)	agonism of ERRβ (ERRβ)
				CCN(CC)c1ccc(C=NNC(=O)c2ccc(O)cc2)cc1 (stereo in doubt) [GSK9089, N-[(E)-[4-(diethylamino)phenyl]methylideneamino]-4-hydroxybenzamide]	agonists	agonists
activate	activate	activate		Cc1cccc(C=NNC(=O)c2ccc(O)cc2)c1 [DY159]		
activate	activate	activate		O=C(NN=Cc1ccccc1)c1ccc(O)cc1 [DY162]		
activate	activate	activate		CCc1ccc(C=NNC(=O)c2ccc(O)cc2)s1 [DY164]		
activate	activate	activate		Cc1ccc(/C=N/NC(=O)c2ccc(O)cc2)cc1 [DY163]		
			selective for ERRγ but not ERRα and β	Nc1ccc(C(=O)N/N=C/c2ccc(/N=N/c3ccccc3)cc2)cn1 [E6]		
				CC(C)c1ccc(/C=N/NC(=O)c2ccc(O)cc2)cc1 [GSK4716]		agonists
